# According to US20220257571A1, “INHIBITOR OF MAP KINASE INTERACTING SERINE/THREONINE KINASE 1 (MNK1) AND MAP KINASE INTERACTING SERINE/THREONINE KINASE 2 (MNK2), CANCER THERAPY AND THERAPEUTIC COMBINATIONS” (FUNPACIÓ HOSPITAL UNIVERSITARI VALL D'HEBRON - INSTITUT DE …, priority 2019, published 2022):
# Key:
# [1] = test system: 22Rv1 castration resistant prostate cancer cells; experiment: cell viability of 22Rv1 cells, EB1 with Enzalutamide; type: cell-based; conditions: 22Rv1, co-treatment with Enzalutamide, 72 h
# Procedure: Cell viability under combined inhibition of AR and eIF4E phosphorylation was assayed. […] (B) Number of viable cells after 72 h treatment with pairwise combinations reported as percentage relative to control. (E) Cell viability data presented as a grid displaying the percentage of affected cells by each pairwise combination of drug doses. (C) Drug combinations with the strongest inhibition in cell viability (bars; mean±SEM; n=3. *p<0.05, **p<0.01 two-tailed Student's test). (F) Combination index (CI) presented as a grid for each pairwise combination of drug doses calculated by the Chou-Talalay method at non-constant ratio. (D and I) Fraction affected vs. combination index (CI) plots.
# [2] = test system: eIF4E phosphorylation in breast cancer cells (MDA-MB-468); experiment: titration of eIF4E phosphorylation in MDA-MB-468 cells; type: cell-based
# Procedure: Commercially available MDA-MB-231, MDA-MB-468, MCF7 and A375M, IMR90 (IMR-90 (ATCC® CCL-186TH) cells were grown at 37° C. and 5% CO2 in DMEM medium (Dulbecco's Modified Eagle Medium, 4.5 g/I glucose; 30 mg/I L-Glutamine (Gibco)) supplemented with 10% foetal bovine serum, 100 U/ml penicillin and 100 μg/ml streptomycin.
# Inhibition of eIF4E phosphorylation was quantified by Western Blot. Cells were seeded in 60 mm plates (700,000 cells for 24 h, 500,000 cells for 48 h and 300,000 cells for 72 h).
# After 24 h, the treatments were added. The stocks of compounds were prepared in […] at a concentration 200 times more concentrated than the treatment concentration. Thus, in all cases, the final concentration of DMSO in the medium was 0.5%.
# After incubation, proteins were removed and Western Blot was performed. On ice, the plates were washed with PBS and the cells were lysed with 60 μl lysis buffer (50 mM Tris, 200 mM NaCl, 5 mM EDTA, 0.1% Triton 100×, pH 7.5 supplemented with protease inhibitors (EDTA-free Protease Inhibitor Cocktail Set III, Calbiochem) and phosphatase inhibitors (Phosphatase Inhibitor Cocktail Set II, Calbiochem)). The samples were centrifuged at 15,000 g and the supernatant was quantified by the Bradford method. […] Selectivity against MNK was analysed with ERK, p-ERK, MNK1, p-MNK1, 4EBP1 and p-4EBP1 antibodies. […]
# [3] = target: T1, EphA4 receptor tyrosine kinase (Homo sapiens, UniProt P54764); experiment: inhibitory test of EphA4 in the kinase panel; type: biochemical
# T1 construct: purchased Proqinase
# T1 sequence (P54764 20-986): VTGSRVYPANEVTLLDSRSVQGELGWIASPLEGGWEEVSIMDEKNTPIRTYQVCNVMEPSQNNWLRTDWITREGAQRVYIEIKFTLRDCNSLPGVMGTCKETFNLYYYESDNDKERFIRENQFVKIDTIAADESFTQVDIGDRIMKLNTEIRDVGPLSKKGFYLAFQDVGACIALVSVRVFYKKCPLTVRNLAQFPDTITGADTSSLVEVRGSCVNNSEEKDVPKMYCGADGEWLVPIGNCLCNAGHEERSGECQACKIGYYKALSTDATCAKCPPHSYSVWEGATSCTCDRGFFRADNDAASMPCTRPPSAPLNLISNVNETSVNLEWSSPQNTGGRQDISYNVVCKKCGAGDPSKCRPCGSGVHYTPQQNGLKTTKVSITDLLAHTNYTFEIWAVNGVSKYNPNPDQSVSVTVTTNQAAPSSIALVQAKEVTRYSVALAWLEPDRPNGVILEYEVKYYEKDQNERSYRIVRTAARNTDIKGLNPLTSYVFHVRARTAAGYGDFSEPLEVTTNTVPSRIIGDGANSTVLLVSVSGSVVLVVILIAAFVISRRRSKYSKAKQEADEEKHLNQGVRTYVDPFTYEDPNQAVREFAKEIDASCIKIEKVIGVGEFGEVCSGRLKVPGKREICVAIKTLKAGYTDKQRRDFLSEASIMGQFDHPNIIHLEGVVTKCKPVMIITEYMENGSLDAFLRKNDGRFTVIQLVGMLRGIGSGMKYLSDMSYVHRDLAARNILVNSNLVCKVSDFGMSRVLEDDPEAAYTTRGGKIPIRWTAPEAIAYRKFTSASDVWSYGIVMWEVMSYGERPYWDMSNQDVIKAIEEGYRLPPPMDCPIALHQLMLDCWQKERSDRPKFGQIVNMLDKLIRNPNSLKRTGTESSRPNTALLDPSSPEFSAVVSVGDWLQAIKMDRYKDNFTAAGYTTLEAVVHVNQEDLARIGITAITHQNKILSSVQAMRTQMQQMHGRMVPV
# Procedure: The kinase activity of the compound was measured by a radiometric kinase assay (^33PanQinase® Activity Assay) carried out by Proqinase (www.proqinase.com).
# The assays were carried out in 96-well FlashPlates™ by PerkinElmer (Boston, Mass., USA) with a reaction volume of 50 μl. The reaction cocktail was pipetted in 4 steps: (1) 20 μl buffer, (2) 5 μl ATP solution (in H2O), (3) 5 μl compound (in 10% DMSO) and (4) 20 μl enzyme/substrate mixture. Lastly, the cocktail contained 70 mM HEPES-NaOH pH 7.5, 3 mM MgCl2, 3 mM MnCl2, 3 μM sodium orthovanadate, 1.2 mM DTT, 50 μg/ml PEG20000, ATP (1 μM for MNK1 and 0.3 μM for MNK2), [γ-^33P]-ATP (approx. […] per well), protein kinase (variable amounts depending on the batch) and substrate (2 μg/50 μl).
# Reaction cocktails were incubated at 30° C. for 60 minutes. The reaction was stopped with 50 μl of 2% H3PO4 (v/v), the plates were sucked, they were washed twice with 200 μl of 0.9% NaCl (w/v) and the incorporation of ^33Pi (MicroBeta microplate scintillation counter, Wallac) was determined. […]
# The residual activity (in %) for each well of a particular plate was calculated using the following formula (wherein high control is the kinase activity in absence of an inhibitor and low control is the radioactivity value of the substrate in absence of a kinase).
# To study selectivity, residual activity was measured at 1 μM from a 320-kinase panel.
structure (smiles),measurement,setting,value
"Nc1n[nH]c2nc(-c3ccccc3)cc(-c3ccccc3)c12 [EB1, 4,6-diphenyl-1H-pyrazolo[3,4-b]pyridin-3-amine]",effect of co-treatment on cell viability,[1],synergistic effect
same,activity as MNK inhibitor (eIF4E phosphorylation),[2],active
same,inhibition at 1 µM,[3],10%
